# Source: patent US7560466B2, “Methods of treating or preventing autoimmune diseases with 2,4-pyrimidinediamine compounds” (Rigel Pharmaceuticals, Inc., priority 2003, dated 2009)
# Like-named read-outs stand apart in the source and are kept apart here.
# Tests used:
# [1] = test system: cultured human mast cells (CHMC), IgE-induced degranulation; assay: CHMC low cell density IgE activation: tryptase assay; format: cell-based
# Method in brief: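 Tryptase release read fluorogenically (30 min, room temperature) from supernatants of anti-IgE-challenged cultured human mucosal mast cells derived from umbilical cord CD34+ cells, at low density of 1000–1500 cells/well.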
# [2] = test system: cultured human mast cells (CHMC), ionomycin-induced degranulation; assay: CHMC low cell density ionomycin activation: tryptase assay; format: cell-based; conditions: ionomycin activation, read-out: LD Tryptase, CHMC, Iono, 3pt
# [3] = CHMC low cell density, 3pt, read-out: LD Tryptase, CHMC, IgE, 3pt
# [4] = CHMC low cell density, 8pt, read-out: LD Tryptase, CHMC, IgE, 8pt
# [5] = low cell density CHMC, 3-point, read-out: LD Tryptase, CHMC, IgE, 3pt
# [6] = low cell density CHMC, 8-point, read-out: LD Tryptase, CHMC, IgE, 8pt
compound,measurement,setting,value
"NC(=S)c1cccc(Nc2ncc(F)c(Nc3ccc4c(c3)NC(=O)C(CCO)O4)n2)c1 (stereo not drawn) [Compound 262, N2-(3-Benzothioamide)-5-fluoro-N4-[2-(2-hydroxyethyl)-3-oxo-2H,4H-benz[1,4]oxazin-6-yl]-2,4-pyrimidinediamine]",IC50,"[1]; low cell density CHMC, 3pt, read-out: LD Tryptase, CHMC, IgE, 3pt",< 10 µM
same,IC50,"[2]; low cell density CHMC, 3pt",> 10 µM
"CNC(=O)COc1cccc(Nc2ncc(F)c(N(C)c3ccc4c(c3)OCCO4)n2)c1 [Compound 385, N4-(3,4-Ethylenedioxyphenyl)-5-fluoro-N4-methyl-N2-[3-(N-methylamino)carbonylmethyleneoxyphenyl]-2,4-pyrimidinediamine]",IC50,[1]; [3],< 10 µM
same,IC50,[1]; [4],< 10 µM
same,IC50,"[2]; CHMC low cell density, 3pt",> 10 µM
CC(=O)N1CCN(c2cccc(Nc3ncc(F)c(Nc4ccc5c(c4)OC(F)(F)C(F)(F)O5)n3)c2)CC1 [Compound 431],IC50,[1]; [3],< 10 µM
same,IC50,[1]; [4],< 10 µM
same,IC50,"[2]; CHMC low cell density, 3pt",> 10 µM
CC(=O)N1CCN(c2ccc(Nc3ncc(F)c(Nc4ccc5c(c4)OC(F)(F)C(F)(F)O5)n3)cc2)CC1 [Compound 432],IC50,[1]; [3],< 10 µM
same,IC50,"[2]; CHMC low cell density, 3pt",> 10 µM
"CNC(=O)COc1cccc(Nc2ncc(F)c(N(CC(=O)OC)c3ccc4c(c3)OCCO4)n2)c1 [Compound 446, N4-(3,4-Ethylenedioxyphenyl)-5-fluoro-N4-(methoxycarbonylmethyl)-N2-[3-(N-methylamino)carbonylmethyleneoxyphenyl]-2,4-pyrimidinediamine]",IC50,[1]; [3],< 10 µM
same,IC50,"[2]; CHMC low cell density, 3pt",> 10 µM
"CNC(=O)c1cc(Nc2ncc(F)c(N(C)c3ccc4c(c3)OCCO4)n2)ccc1Cl [Compound 453, N2-[4-Chloro-3-(N-methylamino)carbonylphenyl]-N4-(3,4-ethylenedioxyphenyl)-5-fluoro-N4-methyl-4-pyrimidinediamine]",IC50,[1]; [3],< 10 µM
same,IC50,"[2]; CHMC low cell density, 3pt",> 10 µM
"CN(C)c1ncc(F)c(N(C)c2ccc3c(c2)OCCO3)n1 [Compound 462, N2-Dimethyl-N4-(3,4-ethylenedioxyphenyl)-5-fluoro-N4-methyl-2,4-pyrimidinediamine]",IC50,[1]; [3],> 10 µM
same,IC50,"[2]; CHMC low cell density, 3pt",> 10 µM
"CNS(=O)(=O)c1ccc(Nc2ncc(F)c(Nc3ccc4c(c3)NC(=O)C(C)(C)O4)n2)cc1OC [Compound 496, N4-(2,2-Dimethyl-3-oxo-4H-benz[1,4]oxazin-6-yl)-5-fluoro-N2-[3-methoxyphenyl-4-(methylamino)sulfonyl]-2,4-pyrimidinediamine]",IC50,[1]; [3],< 10 µM
same,IC50,[1]; [4],< 10 µM
same,IC50,"[2]; CHMC low cell density, 3pt",< 10 µM
"CNC(=O)COc1c(C)cc(Nc2ncc(F)c(N(C)c3ccc4c(c3)OCCO4)n2)cc1C [Compound 635, N2-[3,5-Dimethyl-4-(N-methylamino)carbonylmethyleneoxyphenyl]-N4-(3,4-ethylenedioxyphenyl)-5-fluoro-N4-methyl-2,4-pyrimidinediamine]",IC50,[1]; [3],< 10 µM
same,IC50,[1]; [4],< 10 µM
same,IC50,"[2]; CHMC low cell density, 3pt",< 10 µM
"CNC(=O)COc1c(C)cc(Nc2ncc(F)c(N(C)c3ccc4c(c3)OC(F)(F)C(F)(F)O4)n2)cc1C [Compound 636, N2-[3,5-Dimethyl-4-(N-methylamino)carbonylmethyleneoxyphenyl]-5-fluoro-N4-methyl-N4-[3,4-(tetrafluoroethylenedioxy)phenyl]-2,4-pyrimidinediamine]",IC50,[1]; [3],< 10 µM
same,IC50,[1]; [4],< 10 µM
same,IC50,"[2]; CHMC low cell density, 3pt",< 10 µM
"CNC(=O)COc1c(C)cc(Nc2ncc(F)c(Nc3ccc4c(c3)OC(F)(F)C(F)(F)O4)n2)cc1C [Compound 637, N2-[3,5-Dimethyl-4-(N-methylamino)carbonylmethyleneoxyphenyl]-5-fluoro-N4-[3,4-(tetrafluoroethylenedioxy)phenyl]-2,4-pyrimidinediamine]",IC50,[1]; [3],< 10 µM
same,IC50,"[2]; CHMC low cell density, 3pt",> 10 µM
"COC(=O)Cn1ccc2ccc(Nc3ncc(F)c(Nc4ccc5c(c4)NC(=O)C(C)(C)O5)n3)cc21 [Compound 639, N4-(2,2-Dimethyl-3-oxo-4H-benz[1,4]oxazin-6-yl)-5-fluoro-N2-[1-(methoxycarbonylmethylene)indol-6-yl]-2,4-pyrimidinediamine]",IC50,[1]; [3],< 10 µM
same,IC50,[1]; [4],< 10 µM
same,IC50,"[2]; CHMC low cell density, 3pt",> 10 µM
"COC(=O)Cn1ccc2ccc(Nc3ncc(F)c(Nc4ccc5c(c4)OCCO5)n3)cc21 [Compound 642, N4-(3,4-Ethylenedioxyphenyl)-5-fluoro-N2-[1-(methoxycarbonylmethylene)indol-6-yl]-2,4-pyrimidinediamine]",IC50,[1]; [3],< 10 µM
same,IC50,[1]; [4],< 10 µM
same,IC50,"[2]; CHMC low cell density, 3pt",> 10 µM
"COC(=O)Cn1ccc2cc(Nc3ncc(F)c(Nc4ccc5c(c4)NC(=O)C(C)(C)O5)n3)ccc21 [Compound 643, N4-(2,2-Dimethyl-3-oxo-4H-benz[1,4]oxazin-6-yl)-5-fluoro-N2-[1-(methoxycarbonylmethylene)indol-5-yl]-2,4-pyrimidinediamine]",IC50,[1]; [3],< 10 µM
same,IC50,[1]; [4],< 10 µM
same,IC50,"[2]; CHMC low cell density, 3pt",> 10 µM
"COC(=O)Cn1ccc2cc(Nc3ncc(F)c(Nc4ccc5c(c4)OCCO5)n3)ccc21 [Compound 647, N4-(3,4-Ethylenedioxyphenyl)-5-fluoro-N2-[1-(methoxycarbonylmethylene)indol-5-yl]-2,4-pyrimidinediamine]",IC50,[1]; [3],< 10 µM
same,IC50,[1]; [4],< 10 µM
same,IC50,"[2]; CHMC low cell density, 3pt",> 10 µM
"CNC(=O)Cn1ccc2ccc(Nc3ncc(F)c(Nc4ccc5c(c4)OCCO5)n3)cc21 [Compound 649, N4-(3,4-Ethylenedioxyphenyl)-5-fluoro-N2-[1-(N-methylamino)carbonylmethyleneindol-6-yl]-2,4-pyrimidinediamine]",IC50,[1]; [3],< 10 µM
same,IC50,[1]; [4],< 10 µM
same,IC50,"[2]; CHMC low cell density, 3pt",> 10 µM
"CC1(C)Oc2ccc(Nc3nc(Nc4ccc5c(cnn5CCCNS(C)(=O)=O)c4)ncc3F)nc2NC1=O [Compound 836, N4-(2,2-Dimethyl-3-oxo-4H-5-pyrid[1,4]oxazin-6-yl)-5-fluoro-N2-[1-[3-(N-methylsulfonylamino)propyl]indazol-5-yl]-2,4-pyrimidinediamine]",IC50,[1]; [3],< 10 µM
same,IC50,[1]; [4],< 10 µM
same,IC50,"[2]; CHMC low cell density, 3pt",> 10 µM
"Cc1cc(Nc2ncc(F)c(Nc3ccc4c(n3)NC(=O)C(C)(C)O4)n2)cc(Cl)c1O [Compound 996, N2-(3-Chloro-4-hydroxy-5-methylphenyl)-N4-(2,2-dimethyl-3-oxo-4H-5-pyrid[1,4]oxazin-6-yl)-5-fluoro-2,4-pyrimidinediamine]",IC50,[1]; [3],< 10 µM
same,IC50,[1]; [4],< 10 µM
same,IC50,"[2]; CHMC low cell density, 3pt",> 10 µM
"CNC(=O)COc1cccc(Nc2ncc(F)c(Nc3ccc4c(c3)NCC(C)(C)O4)n2)c1 [Compound 1000, N4-(3,4-Dihydro-2,2-dimethyl-4H-benz[1,4]oxazin-6-yl)-5-fluoro-N2-[3-(N-methylamino)carbonylmethyleneoxyphenyl]-2,4-pyrimidinediamine]",IC50,[1]; [4],< 10 µM
same,IC50,"[2]; CHMC low cell density, 3pt",< 10 µM
"Cc1ccccc1Nc1ncc(F)c(Nc2ccc3c(n2)NC(=O)C(C)(C)O3)n1 [Compound 1004, N4-(2,2-Dimethyl-3-oxo-4H-5-pyrid[1,4]oxazin-6-yl)-5-fluoro-N2-(2-methylphenyl)-2,4-pyrimidinediamine]",IC50,[1]; [3],< 10 µM
same,IC50,"[2]; CHMC low cell density, 3pt",> 10 µM
"CN1C(=O)C(C)(C)Oc2ccc(N(C)c3nc(Cl)ncc3F)nc21 [Compound 1005, 2-Chloro-5-fluoro-N4-methyl-N4-(3-oxo-2,2,4-trimethyl-5-pyrid[1,4]oxazin-6-yl)-4-pyrimdinea mine]",IC50,[1]; [3],< 10 µM
same,IC50,"[2]; CHMC low cell density, 3pt",> 10 µM
"CN1C(=O)C(C)(C)Oc2ccc(Nc3nc(Cl)ncc3F)nc21 [Compound 1006, 2-Chloro-5-fluoro-N4-(3-oxo-2,2,4-trimethyl-5-pyrid[1,4]oxazin-6-yl)-4-pyrimidinea mine]",IC50,[1]; [3],> 10 µM
same,IC50,"[2]; CHMC low cell density, 3pt",> 10 µM
"COc1c(C)cc(Nc2ncc(F)c(Nc3ccc4c(n3)N(C)C(=O)C(C)(C)O4)n2)cc1Cl [Compound 1009, N2-(3-Chloro-4-methoxy-5-methylphenyl)-5-fluoro-N4-(3-oxo-2,2,4-trimethyl-5-pyrid[1,4]oxazin-6-yl)-2,4-pyrimidinediamine]",IC50,[1]; [3],< 10 µM
same,IC50,[1]; [4],< 10 µM
same,IC50,"[2]; CHMC low cell density, 3pt",> 10 µM
"CCOc1c(C)cc(Nc2ncc(F)c(Nc3ccc4c(n3)NC(=O)C(C)(C)O4)n2)cc1Cl [Compound 1010, N2-(3-Chloro-4-ethoxy-5-methylphenyl)-N4-(2,2-dimethyl-3-oxo-4H-5-pyrid[1,4]oxazin-6-yl)-5-fluoro-2,4-pyrimidinediamine]",IC50,[1]; [3],< 10 µM
same,IC50,"[2]; CHMC low cell density, 3pt",> 10 µM
"CN1C(=O)C(C)(C)Oc2ccc(Nc3nc(Nc4cccc(-c5ncco5)c4)ncc3F)nc21 [Compound 1012, 5-Fluoro-N2-[3-(oxazol-2-yl)phenyl]-N4-[3-oxo-2,2,4-trimethyl-5-pyrid[1,4]oxazin-6-yl]-2,4-pyrimidinediamine]",IC50,[1]; [3],< 10 µM
same,IC50,[1]; [4],< 10 µM
same,IC50,"[2]; CHMC low cell density, 3pt",> 10 µM
"CN1C(=O)C(C)(C)Oc2ccc(Nc3nc(Nc4ccc(-c5ncco5)cc4)ncc3F)nc21 [Compound 1013, 5-Fluoro-N2-[4-(oxazol-2-yl)phenyl]-N4-[3-oxo-2,2,4-trimethyl-5-pyrid[1,4]oxazin-6-yl]-2,4-pyrimidinediamine]",IC50,[1]; [3],< 10 µM
same,IC50,"[2]; CHMC low cell density, 3pt",> 10 µM
"CCOC(=O)COc1c(C)cc(Nc2ncc(F)c(Nc3ccc4c(c3)NC(=O)C(C)(C)O4)n2)cc1Cl [Compound 1014, N2-[3-Chloro-4-ethoxycarbonylmethyleneoxy-5-methylphenyl]-N4-(2,2-dimethyl-3-oxo-4H-benz[1,4]oxazin-6-yl)-5-fluoro-2,4-pyrimidinediamine]",IC50,[1]; [5],< 10 µM
same,IC50,[1]; [6],< 10 µM
same,IC50,"[2]; low cell density CHMC, 3-point",< 10 µM
"CNC(=O)COc1cccc(Nc2ncc(F)c(Nc3ccc4c(n3)N(C)C(=O)C(C)(C)O4)n2)c1 [Compound 1015, 5-Fluoro-N2-[3-(N-methylamino)carbonylmethyleneoxyphenyl]-N4-[3-oxo-2,2,4-trimethyl-5-pyrid[1,4]oxazin-6-yl]-2,4-pyrimidinediamine]",IC50,[1]; [5],< 10 µM
same,IC50,[1]; [6],< 10 µM
same,IC50,"[2]; low cell density CHMC, 3-point",> 10 µM
